The values that follow come from PubChem BioAssay (NCI).

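Interpolation was linear, between the two tested concentrations surrounding the appropriate level; five concentrations were tested over 48 hours in 96-well plates. The concentration for full growth arrest is given as TGI.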 Peptide text beside a SMILES is read from it. * marks the point of attachment. X34 = O=C(c1ccc(-c2ccc(Cl)cc2Cl)o1)*

Some test systems named below: CCRF-CEM leukemia; K-562 leukemia; SK-MEL-5 melanoma; OVCAR-3 ovarian; MALME-3M melanoma; HT29 colon; OVCAR-8 ovarian; TK-10 renal; MDA-N; OVCAR-5 ovarian; SK-MEL-28 melanoma; RXF 393 renal; SNB-19 CNS; HS 578T breast; DU-145 prostate; BT-549 breast; MDA-MB-231 breast; 786-0 renal; SF-539 CNS; UO-31 renal.
Common to all, as to assay: growth of human tumour cells (NCI), 48 h

Regarding `N#CC1(C#N)[C@@H]2CCC=C(Sc3ccccc3)[C@@H]21`, the TGI with CCRF-CEM leukemia is 63.1 µM; in the assay on K-562 leukemia it was greater than 100 µM; in the assay with SK-MEL-5 melanoma it was 29.4 µM; with OVCAR-3 ovarian, 31.1 µM; in the assay on MALME-3M melanoma, 32 µM; in the assay on HT29 colon, 34.8 µM. The TGI turned out to be 31.2 µM in the assay on OVCAR-8 ovarian; 28.9 µM in the assay with TK-10 renal; 34.1 µM with MDA-N; 32 µM in the assay on OVCAR-5 ovarian; 28.9 µM with SK-MEL-28 melanoma; 26.3 µM in the assay on RXF 393 renal. The TGI with SNB-19 CNS was 97.9 µM; with HS 578T breast it was greater than 100 µM; in the assay with DU-145 prostate it was 30.4 µM; in the assay with BT-549 breast it was 44.4 µM; in the assay on MDA-MB-231 breast, 43.7 µM; in the assay on 786-0 renal, 35.5 µM. In the assay with SF-539 CNS, the TGI came to 34.7 µM.
With `O=C(c1ccccc1)N(CCCCNC(=O)C(F)(F)F)CCCNC(=O)C(F)(F)F`, the TGI with CCRF-CEM leukemia, in the assay on K-562 leukemia, in the assay with SK-MEL-5 melanoma, in the assay on MALME-3M melanoma, with HT29 colon and in the assay with OVCAR-8 ovarian was greater than 100 µM each time. The TGI in the assay on TK-10 renal, in the assay with MDA-N, in the assay with OVCAR-5 ovarian, with SK-MEL-28 melanoma, in the assay on RXF 393 renal and in the assay with SNB-19 CNS was greater than 100 µM in each case. Moreover, the TGI with HS 578T breast, with DU-145 prostate, with BT-549 breast, with MDA-MB-231 breast, with UO-31 renal and with 786-0 renal was greater than 100 µM throughout. Moreover, in the assay on SF-539 CNS, the TGI was greater than 100 µM.
As to `[N-]=[N+]=Nc1c(-c2ccccc2)c(=O)n(-c2ccccc2)c2ccccc12`, the TGI with CCRF-CEM leukemia, in the assay with K-562 leukemia, in the assay with OVCAR-3 ovarian, with MALME-3M melanoma, in the assay with HT29 colon and in the assay with OVCAR-8 ovarian was greater than 100 µM in each case. Further, the TGI in the assay with TK-10 renal, in the assay on MDA-N, in the assay with SK-MEL-28 melanoma, in the assay with RXF 393 renal, in the assay with HS 578T breast and with DU-145 prostate was greater than 100 µM each time. Also, the TGI in the assay on BT-549 breast, in the assay with MDA-MB-231 breast, in the assay with UO-31 renal, with 786-0 renal and in the assay with SF-539 CNS was greater than 100 µM in each case.
Turning to `Cc1cn(C2CC(N=[N+]=[N-])C(CO)O2)c(=O)n(CCCCBr)c1=O` (stereo unspecified), the TGI in the assay on CCRF-CEM leukemia, with K-562 leukemia, in the assay on OVCAR-3 ovarian, with MALME-3M melanoma, in the assay on HT29 colon and in the assay with OVCAR-8 ovarian was greater than 100 µM in each case. In addition, the TGI with TK-10 renal, in the assay on MDA-N, in the assay with OVCAR-5 ovarian, in the assay on SK-MEL-28 melanoma, in the assay with RXF 393 renal and in the assay with SNB-19 CNS was greater than 100 µM throughout. Moreover, the TGI in the assay with HS 578T breast, in the assay on DU-145 prostate, with BT-549 breast, in the assay on MDA-MB-231 breast, in the assay with UO-31 renal and with 786-0 renal was greater than 100 µM in each case. The compound further had a TGI with SF-539 CNS greater than 100 µM.
`O=C1NC(=O)C(C(c2ccc([N+](=O)[O-])cc2)C2C(=O)NC(=O)NC2=O)C(=O)N1`: the TGI with CCRF-CEM leukemia, in the assay on K-562 leukemia, in the assay with SK-MEL-5 melanoma, in the assay with OVCAR-3 ovarian, in the assay with MALME-3M melanoma and in the assay with HT29 colon was greater than 100 µM each time. Moreover, the TGI in the assay on OVCAR-8 ovarian, in the assay with TK-10 renal, in the assay on MDA-N, with OVCAR-5 ovarian, with SK-MEL-28 melanoma and in the assay with RXF 393 renal was greater than 100 µM each time. For the same compound, the TGI with SNB-19 CNS, with HS 578T breast, with DU-145 prostate, in the assay with BT-549 breast, in the assay with MDA-MB-231 breast and with UO-31 renal was greater than 100 µM each time. Besides, the TGI in the assay with 786-0 renal is greater than 100 µM.
On to `O=C(O)/C=C/c1ccc(OS(=O)(=O)O)cc1`, for which the TGI in the assay with K-562 leukemia, in the assay with SK-MEL-5 melanoma, with OVCAR-3 ovarian, in the assay with MALME-3M melanoma, with HT29 colon and with OVCAR-8 ovarian was greater than 100 µM in each case. The TGI with TK-10 renal, in the assay on MDA-N, with OVCAR-5 ovarian, with SK-MEL-28 melanoma, in the assay on RXF 393 renal and with SNB-19 CNS was greater than 100 µM throughout. Besides, the TGI in the assay with HS 578T breast, with DU-145 prostate, in the assay with BT-549 breast, in the assay on MDA-MB-231 breast, with UO-31 renal and with 786-0 renal was greater than 100 µM throughout. For the same compound, in the assay with SF-539 CNS, the TGI is greater than 100 µM.
Regarding `COC(=O)C(CC(C)C)NC(=O)C(Cc1ccccc1)NC(=O)C1CCCN1C(=O)C(CO)NC(=O)c1ccc(-c2ccc(Cl)cc2Cl)o1` (stereo unspecified) (X34-SPFL-OMe; configuration not given here), the TGI in the assay on CCRF-CEM leukemia was greater than 100 µM; in the assay with K-562 leukemia, 89.2 µM; with SK-MEL-5 melanoma it was 35.2 µM; in the assay on MALME-3M melanoma, greater than 100 µM; in the assay on HT29 colon, 40.7 µM; in the assay with OVCAR-8 ovarian, greater than 100 µM. The TGI in the assay on TK-10 renal is 67.5 µM; with MDA-N, greater than 100 µM; in the assay on OVCAR-5 ovarian it was 50.4 µM; in the assay on SK-MEL-28 melanoma it was greater than 100 µM; in the assay on RXF 393 renal it was 44.7 µM; with SNB-19 CNS it was greater than 100 µM. For the same compound, the TGI was greater than 100 µM with HS 578T breast; greater than 100 µM in the assay with DU-145 prostate; 75.7 µM in the assay with BT-549 breast; 32.3 µM with MDA-MB-231 breast; 65.2 µM with UO-31 renal; 56.9 µM with 786-0 renal. For the same compound, in the assay with SF-539 CNS, the TGI was 60.4 µM.
